This test concerns P388 leukemia ip, CD2F1 mice, survival T/C. Nature of the test: NCI In Vivo Anticancer Drug Screen. Data for tumor model P388 Leukemia (intraperitoneal) in CD2F1 (CDF1) mice. The conditions noted are these: endpoint: median survival time, higher = longer survival. The method, boiled down: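 Mice carrying the transplanted tumor received test compound or vehicle. Survival was recorded in each group, and the value is the treated-group measurement divided by that of the vehicle-treated control group.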

The mark [1] stands for this setting: dose: 50.0 mg/kg/injection, schedule: Q01DX009 (ip), vehicle: saline.
[2] abbreviates: dose: 100.0 mg/kg/injection, schedule: Q01DX009 (ip), vehicle: saline.
Where [3] appears, read: dose: 200.0 mg/kg/injection, schedule: Q01DX009 (ip), vehicle: saline.
The mark [4] stands for this setting: dose: 50.0 mg/kg/injection, schedule: Q01DX005 (ip), vehicle: saline with Tween-80.
Where [5] appears, read: dose: 100.0 mg/kg/injection, schedule: Q01DX005 (ip), vehicle: saline with Tween-80.
Where [6] appears, read: dose: 200.0 mg/kg/injection, schedule: Q01DX005 (ip), vehicle: saline with Tween-80.
[7] abbreviates: dose: 50.0 mg/kg/injection, schedule: Q01DX009 (ip), vehicle: suspension in saline.
Where [8] appears, read: dose: 100.0 mg/kg/injection, schedule: Q01DX009 (ip), vehicle: suspension in saline.
Setting [9] is: dose: 50.0 mg/kg/injection, schedule: Q01DX005 (ip), vehicle: Klucel (hydroxypropylcellulose) (HPC).
The mark [10] stands for this setting: dose: 100.0 mg/kg/injection, schedule: Q01DX005 (ip), vehicle: Klucel (hydroxypropylcellulose) (HPC).
[11] abbreviates: dose: 200.0 mg/kg/injection, schedule: Q01DX005 (ip), vehicle: Klucel (hydroxypropylcellulose) (HPC).

Several values for one entry are separate records, joined by “and”; a condition that tells them apart may be missing. Equal entries are not always repeated. Inconclusive results and toxic doses are left out.

With `O=CN1CCCc2cc(C(=O)O)ccc21`, the T/C by setting is: (dose: 50.0 mg/kg/injection, schedule: Q01DX001 (ip), vehicle: saline sonified) 100 % of control; (dose: 100.0 mg/kg/injection, schedule: Q01DX001 (ip), vehicle: saline sonified) 100 % of control; (dose: 200.0 mg/kg/injection, schedule: Q01DX001 (ip), vehicle: saline sonified) 105 % of control.

Regarding `Cc1ccc(CNc2ccc(I)cc2)cc1`, the T/C is, setting by setting: (dose: 100.0 mg/kg/injection, schedule: Q01DX009 (ip), vehicle: other) 104 % of control; (dose: 200.0 mg/kg/injection, schedule: Q01DX009 (ip), vehicle: other) 95 % of control; (dose: 400.0 mg/kg/injection, schedule: Q01DX009 (ip), vehicle: other) 95 % of control.

As for `CCC(C)=C(C#N)NC(C)(C)C` (mixture of isomers), the T/C is 106 % of control under setting [1], 100 % of control under setting [2] and 110 % of control under setting [3].

Turning to `O=C(O/N=C1\C2CCC(C2)C1Cl)c1ccc([N+](=O)[O-])cc1` (stereo not drawn), the T/C is, setting by setting: (dose: 12.5 mg/kg/injection, schedule: Q01DX009 (ip), vehicle: saline with Tween-80) 118 % of control; (dose: 25.0 mg/kg/injection, schedule: Q01DX009 (ip), vehicle: saline with Tween-80) 122 % of control; (dose: 50.0 mg/kg/injection, schedule: Q01DX009 (ip), vehicle: saline with Tween-80) 104 % of control.

On to `NS(=O)(=O)c1ccc(N=NC2Sc3nc4ccccc4n3C2=O)cc1` (stereo not drawn), for which the T/C (dose: 60.0 mg/kg/injection, schedule: Q01DX005 (ip), vehicle: Klucel (hydroxypropylcellulose) (HPC)) was 94 % of control and the T/C (dose: 120.0 mg/kg/injection, schedule: Q01DX005 (ip), vehicle: Klucel (hydroxypropylcellulose) (HPC)) was 91 % of control.

For the molecule `Cc1c(O)c(=O)ccn1CCCl`, the T/C was 104 % of control and 107 % of control (dose: 50.0 mg/kg/injection, schedule: Q01DX005 (ip), vehicle: saline); 106 % of control and 107 % of control (dose: 100.0 mg/kg/injection, schedule: Q01DX005 (ip), vehicle: saline); 109 % of control and 116 % of control (dose: 200.0 mg/kg/injection, schedule: Q01DX005 (ip), vehicle: saline).

Regarding `CC(=O)/C(N=Nc1ccc(F)cc1F)=C(\C)O`, the T/C was 103 % of control under setting [4], 103 % of control under setting [5] and 107 % of control under setting [6].

On to `COc1ccc2cc1Oc1ccc(cc1)C[C@H]1c3cc(c(OC)cc3CCN1C)Oc1c(O)c(OC)cc3c1[C@H](C2)N(C)CC3`, for which the T/C (dose: 25.0 mg/kg/injection, schedule: Q01DX009 (ip), vehicle: saline) is 106 % of control; the T/C under setting [1] is 100 % of control; the T/C under setting [7] is 103 % of control; the T/C under setting [2] is 103 % of control; the T/C under setting [8] is 102 % of control.

Turning to `COc1ccc2[nH]cc(C#N)c(=O)c2c1`, the T/C under setting [4] was 101 % of control, the T/C under setting [5] is 90 % of control and the T/C under setting [6] was 92 % of control.

Regarding `O=C(OCCCCBr)c1ccccc1`, the T/C (dose: 50.0 mg/kg/injection, schedule: Q01DX009 (ip), vehicle: saline + Tween-80 + alcohol) is 102 % of control; the T/C (dose: 100.0 mg/kg/injection, schedule: Q01DX009 (ip), vehicle: saline + Tween-80 + alcohol) is 97 % of control; the T/C (dose: 200.0 mg/kg/injection, schedule: Q01DX009 (ip), vehicle: saline + Tween-80 + alcohol) is 96 % of control; the T/C (dose: 400.0 mg/kg/injection, schedule: Q01DX009 (ip), vehicle: saline + Tween-80 + alcohol) was 111 % of control.

For the molecule `CC1=C(N2CCOCC2)C(N2CCOCC2)=C(C)C(=O)C1=O`, the T/C (dose: 12.5 mg/kg/injection, schedule: Q01DX005 (ip), vehicle: Klucel (hydroxypropylcellulose) (HPC)) was 108 % of control; the T/C (dose: 25.0 mg/kg/injection, schedule: Q01DX005 (ip), vehicle: Klucel (hydroxypropylcellulose) (HPC)) was 101 % of control; the T/C under setting [9] is 108 % of control; the T/C under setting [10] was 97 % of control; the T/C under setting [11] was 96 % of control.

For `Cc1ccc(-n2ncc3c(=O)n(-c4cccc(C)c4)c(=O)[nH]c32)cc1`, the T/C is 99 % of control (dose: 50.0 mg/kg/injection, schedule: Q01DX009 (ip), vehicle: Klucel (hydroxypropylcellulose) (HPC)); 97 % of control (dose: 100.0 mg/kg/injection, schedule: Q01DX009 (ip), vehicle: Klucel (hydroxypropylcellulose) (HPC)); 96 % of control (dose: 200.0 mg/kg/injection, schedule: Q01DX009 (ip), vehicle: Klucel (hydroxypropylcellulose) (HPC)).

Take `CC(C)=CCCC(C)(O)C1CC=C(C)CC1` (stereo not drawn): the T/C runs as follows: (dose: 20.0 mg/kg/injection, schedule: Q01DX005 (ip), vehicle: Klucel (hydroxypropylcellulose) (HPC)) 95 % of control; (dose: 40.0 mg/kg/injection, schedule: Q01DX005 (ip), vehicle: Klucel (hydroxypropylcellulose) (HPC)) 95 % of control; (dose: 80.0 mg/kg/injection, schedule: Q01DX005 (ip), vehicle: Klucel (hydroxypropylcellulose) (HPC)) 98 % of control; (dose: 160.0 mg/kg/injection, schedule: Q01DX005 (ip), vehicle: Klucel (hydroxypropylcellulose) (HPC)) 98 % of control.

Regarding `c1csc(-c2n[se]c(-c3cccs3)n2)c1`, the T/C reads like this: (dose: 12.5 mg/kg/injection, schedule: Q04DX002 (ip), vehicle: saline with Tween-80) 99 % of control; (dose: 25.0 mg/kg/injection, schedule: Q04DX002 (ip), vehicle: saline with Tween-80) 100 % of control.

As for `Cc1cc(Nc2ccc3c(c2)OCO3)c2cc3c(cc2n1)OCO3`, the T/C reads like this: under setting [9], 105 % of control and 107 % of control; under setting [10], 116 % of control; under setting [11], 165 % of control and 178 % of control.

As to `COC(=O)[C@@]12OC[C@]34[C@H]([C@@H](O)[C@@H]1O)[C@@]1(C)[C@H](O)C(=O)C=C(C)[C@@H]1C[C@H]3OC(=O)C(OC(C)=O)[C@@H]24` (stereo partly drawn), the T/C reads like this: (dose: 0.1 micrograms/kg/injection, schedule: Q01DX009 (ip), vehicle: saline + alcohol) 96 % of control; (dose: 0.2 micrograms/kg/injection, schedule: Q01DX009 (ip), vehicle: saline + alcohol) 102 % of control; (dose: 0.5 micrograms/kg/injection, schedule: Q01DX009 (ip), vehicle: saline + alcohol) 105 % of control; (dose: 1.0 micrograms/kg/injection, schedule: Q01DX009 (ip), vehicle: saline + alcohol) 93 % of control; (dose: 2.0 micrograms/kg/injection, schedule: Q01DX009 (ip), vehicle: saline + alcohol) 100 % of control; (dose: 4.0 micrograms/kg/injection, schedule: Q01DX009 (ip), vehicle: saline + alcohol) 88 % of control.

Consider `Cc1c2ccncc2cc2c1[nH]c1ccccc12`, for which the T/C (dose: 50.0 mg/kg/injection, schedule: Q04DX003 (ip), vehicle: saline with Tween-80) is 160 % of control and the T/C (dose: 66.0 mg/kg/injection, schedule: Q04DX003 (ip), vehicle: saline with Tween-80) was 209 % of control.

As for `N#Cc1c(C(=O)NN)c2c(-c3ccc4ccccc4c3)n[nH]c(=O)c2[nH]c1=O`, the T/C under setting [4] is 91 % of control, the T/C under setting [5] is 95 % of control and the T/C under setting [6] was 86 % of control.

As for `CCCCOC(OCCCC)C(OCCCC)OCCCC`, the T/C is 105 % of control (dose: 100.0 mg/kg/injection, schedule: Q01DX009 (ip), vehicle: saline with Tween-80); 95 % of control (dose: 100.0 mg/kg/injection, schedule: Q04DX003 (ip), vehicle: saline sonified); 110 % of control (dose: 200.0 mg/kg/injection, schedule: Q01DX009 (ip), vehicle: saline with Tween-80); 100 % of control (dose: 200.0 mg/kg/injection, schedule: Q04DX003 (ip), vehicle: saline sonified); 105 % of control (dose: 400.0 mg/kg/injection, schedule: Q01DX009 (ip), vehicle: saline with Tween-80); 104 % of control (dose: 400.0 mg/kg/injection, schedule: Q04DX003 (ip), vehicle: saline sonified).

Turning to `CC1=CC(O/C=C2\C(=O)OC3c4ccccc4CC23)OC1=O` (stereo not drawn), the T/C under setting [7] is 101 % of control; the T/C under setting [8] is 108 % of control; the T/C (dose: 200.0 mg/kg/injection, schedule: Q01DX009 (ip), vehicle: suspension in saline) was 92 % of control.

On to `COc1cc(/C=C/c2ccnnc2)cc(OC)c1OC`, for which the T/C was 97 % of control under setting [1], 94 % of control under setting [2] and 87 % of control under setting [3].

With `Cc1nc2ccccc2c2nnc(SCC(=O)N(Cc3ccccc3)c3ccccc3)n12`, the T/C under setting [9] is 99 % of control, the T/C under setting [10] is 100 % of control and the T/C under setting [11] is 102 % of control.

`COc1ccc(C2c3cc(OC)c(OC)cc3CC3C(=O)OCC32)cc1OC` (stereo not drawn): the T/C is 94 % of control and 107 % of control under setting [9]; 100 % of control and 97 % of control under setting [10]; 112 % of control and 103 % of control under setting [11].

For the origin of these results see PubChem BioAssay AID330 (DTP/NCI, 2004).
